This experiment has as its target HIV-1 integrase (Human immunodeficiency virus type 1 group M subtype B, UniProt P04585). Kind of experiment: HIV-1 integrase inhibition assay (radiolabeled duplex substrate corresponding to the U5 end of the HIV LTR). The format is biochemical. How it is done:
For the purpose of Table 1 to 4, the HIV-1 integrase inhibition assay was carried out following a known procedure (Burke, Jr. T. R. et al., J. Med. Chem. 38, 4171-4178 (1995)). A suitable radiolabeled duplex substrate corresponding to the U5 end of the HIV LTR was used.
For the purposes of Table 1 to 4 the HIV-1 integrase inhibition assay was based on a known procedure (Hazuda, D. J. et al., Nucleic Acids Res. 22 1121-1122 (1994)).

Like-named read-outs stand apart in the source and are kept apart here. Where only a bound is given, the exact number is not on record here.

In turn, `COc1ccc(NC(=O)[C@H](CCC(=O)NC(c2ccccc2)(c2ccccc2)c2ccccc2)NC(=O)/C=C/c2ccc(OCc3ccc(F)cc3)c(OCc3ccc(F)cc3)c2)cc1O` [Example 112, N-[Nα-(3,4-di-(4-Fluorobenzyloxy)caffeoyl)-Nδ-trityl-L-glutaminyl]-3-hydroxy-4-methoxyaniline] gave a 50% inhibitory concentration (IC50) of 2 µM.

For the compound `COc1ccc(NC(=O)[C@H](CCC(=O)NC(c2ccccc2)(c2ccccc2)c2ccccc2)NC(=O)c2cc3cc(F)ccc3[nH]2)cc1O` [Example 113, N-[Nα-(5-Fluoroindole-2-carbonyl)-Nδ-trityl-L-glutaminyl]-3-hydroxy-4-methoxyaniline], the IC50 was found to be 6.5 µM.

For the compound “N-[Nα-(N′-(4-Fluorobenzyl)indole-2-carbonyl)-Oδ-tert-butyl-L-glutamyl]benzylamine [Example 89]”, the IC50 (Table 4, compounds of formula I′, read-out: IC50) is more than 10 µM.

Regarding “Nα,Nε-di-(3,5-Dihydroxynaphthyl-2-carbonyl)-L-lysine [Example 65]”, the IC50 (Table 2, compounds of formula III′, read-out: IC50) was more than 5 µM.

The values above are taken from patent publication US6528655B1, “Aromatic derivatives with HIV integrase inhibitory properties” (Pharmacor, Inc., priority 2000, dated 2003).
